Measurements from patent US5389645A, “Substituted tyrosyl diamine amide compounds” (G. D. Searle & Co., priority 1992, dated 1995).
Structures can show the parent of a compound that is named as a salt.

How the values were obtained:
[1] = target: μ opioid receptors (Rattus norvegicus, UniProt P33535); experiment: Opiate Binding Assay, displacement of 3[H]-DAMPGO from μ opioid receptors (rat forebrain membranes)
[2] = target: δ opioid receptors (Rattus norvegicus, UniProt P33533); experiment: Opiate Binding Assay, displacement of 3[H]-DSLET from δ opioid receptors (rat forebrain membranes)
Chain of δ opioid receptors (P33533 whole entry): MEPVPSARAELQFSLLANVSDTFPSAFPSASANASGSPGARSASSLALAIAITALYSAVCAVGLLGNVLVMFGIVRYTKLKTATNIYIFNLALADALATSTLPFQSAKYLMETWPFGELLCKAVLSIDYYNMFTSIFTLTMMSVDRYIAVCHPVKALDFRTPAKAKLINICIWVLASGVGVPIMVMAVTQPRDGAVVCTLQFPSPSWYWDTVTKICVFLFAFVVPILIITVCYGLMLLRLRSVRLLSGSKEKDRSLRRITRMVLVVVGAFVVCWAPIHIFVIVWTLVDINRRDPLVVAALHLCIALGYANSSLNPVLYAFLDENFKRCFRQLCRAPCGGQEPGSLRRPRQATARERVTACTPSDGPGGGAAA

[3] = system: mice; experiment: Writhing Assay (phenylbenzoquinone-induced writhing, analgesia, s.c.); format: in vivo, mouse; conditions: for relative potency in the Writhing Assay: among compounds of the invention tested; for Number of Animals out of 10 Exhibiting Analgesia: subcutaneous, 5 mpk, PBQ, mice
Source text: The "Writhing Assay" is one of the most widely-used experimental procedures for measuring the analgesic activity of different narcotic and nonnarcotic analgesic agents, and involves the continuous, chemically-induced pain of visceral origin to an animal, such as a mouse or rat. [Gyires et al., Arch. int. Pharmacodyn, 267, 131-140 (1984); C. Vander Wende et al., Fed. Proc., 15, 494 (1956); Koster et al., Fed. Proc., 18, 412 (1959); and Witken et al., J. Pharmacol. Exp. Ther., 153,400-408 (1961).] Chemicals which may be used to induce this pain include phenylbenzoquinone (PBQ) and acetic acid. As a result of the chemical irritation to the animal, a characteristic stretching and writhing of the animal (dorsiflexion of the animal's back, extension of its hindlimbs and the strong contraction of its abdominal musculature) will generally occur. […] Drugs which reduce the number of writhes of the animal appear to restore the normal nociceptive threshold of the animal.
This assay was conducted generally in the manner described by R. I. Taber, "Predictive Value of Analgesic Assays in Mice and Rats," Advances in Biochemical Psychopharmacology, 8, 191 (1974).
Two hundred CD Charles River mice, weighing 20 to 30 grams, were used in this assay.
Twenty-five minutes after subcutaneous administration to the mice of 10 mg per kilogram (mpk) of body weight of a tyrosyl diamine amide compound of the invention (hereinafter "test compound"), 0.1 mL per 10 g of body weight of a 0.025% w/v solution of phenylbenzoquinone (PBQ) was injected intraperitoneally into each mouse. Some mice were given saline in place of a test compound, and were used as a control group.
Five minutes later, each mouse was individually placed into a glass beaker for observation, and the number of writhes occurring during the following ten-minute period was counted.
A compound was considered to be "active" (to have produced analgesia in a mouse) if, after the administration of 10 mg per kilogram (mpk) of body weight of the compound to the mouse, the number of writhes elicited by a mouse injected with PBQ was equal to, or less than, one-half the median number of writhes recorded for the saline-treated control group of mice that day, as described by R. I. Taber, supra.
The standard initial screening dose of a test compound employed in this assay was 10 mpk […]. […] (The slopes of the dose-response curves for the compounds analyzed were compared as described by Tallarida and Murray, Manual of Pharmacologic Calculations, Page 11 (Springer Verlag, New York, 1981)).

[4] = extended use; cited from earlier work
[5] = system: the same receptor sites as do the opiates; conditions: cited from earlier work
[6] = antagonized by naloxone; cited from earlier work

Chain of μ opioid receptors (P33535 whole entry): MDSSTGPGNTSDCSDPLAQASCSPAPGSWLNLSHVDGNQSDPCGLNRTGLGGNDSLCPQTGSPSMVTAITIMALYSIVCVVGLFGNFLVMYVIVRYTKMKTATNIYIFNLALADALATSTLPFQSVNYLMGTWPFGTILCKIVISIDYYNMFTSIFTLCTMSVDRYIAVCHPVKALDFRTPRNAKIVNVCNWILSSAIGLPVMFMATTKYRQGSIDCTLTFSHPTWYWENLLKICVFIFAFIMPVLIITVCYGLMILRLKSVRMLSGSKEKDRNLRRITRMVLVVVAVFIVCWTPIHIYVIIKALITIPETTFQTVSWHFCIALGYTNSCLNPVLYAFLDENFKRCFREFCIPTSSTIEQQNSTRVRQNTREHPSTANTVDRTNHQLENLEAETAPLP

| SMILES | IC50 [1] [nM] | IC50 [2] [nM] | further results |
| --- | --- | --- | --- |
| Cc1cc(O)cc(C)c1C[C@H](N)C(=O)NC(C)(C)CNC(=O)OCc1ccccc1 [Example 3, Phenylmethyl[2-[[2S-amino-3-(4-hydroxy-2,6-dimethylphenyl)-1-oxopropyl]amino]-2-methylpropyl]carbamate, monohydrochloride] | 62 | 10 | – |
| Cc1cc(O)cc(C)c1C[C@H](N)C(=O)NC(C)(C)CNC(=O)c1ccc2ccccc2n1 [Example 6, N-[2-[[2S-amino-3-(4-hydroxy-2,6-dimethylphenyl)-1-oxopropyl]amino]-2-methylpropyl]-2-quinolinecarboxamide, hydrochloride] | 1.3 | 3.5 | relative potency in the Writhing Assay [3]: the most potent compounds of the invention tested in the Writhing Assay; Number of Animals out of 10 Exhibiting Analgesia [3]: 10/10 |
| Cc1cc(O)cc(C)c1C[C@H](N)C(=O)NC(C)(C)CNC(=O)c1cnc2ccccc2c1 [Example 8, N-[2-[[2S-amino-3-(4-hydroxy-2,6-dimethylphenyl)-1-oxopropyl]amino]-2-methylpropyl]-3-quinolinecarboxamide, hydrochloride] | < 10 | 25 | – |
| Cc1cc(O)cc(C)c1C[C@H](N)C(=O)NC(C)(C)CNC(=O)NCc1ccccc1 [Example 10, αS-amino-N-[1,1-dimethyl-2-[[[(phenylmethyl)amino]carbonyl]amino]ethyl]-4-hydroxy.2,6-dimethylbenzenepropanamide, hydrochloride] | < 10 | 23.1 | – |
| Cc1cc(O)cc(C)c1C[C@H](N)C(=O)NCC(C)(C)NC(=O)NCc1ccccc1 [Example 11, αS-amino-4-hydroxy-2,6-dimethyl-N-[2-methyl-2-[[[(phenylmethyl)amino]carbonyl]amino]propyl]benzenepropanamide, hydrochloride] | 58.6 | 32.8 | – |
| Cc1cc(O)cc(C)c1C[C@H](N)C(=O)NC(C)(C)CNC(=O)CCc1ccccc1 [Example 13, αS-amino-N-[1,1-dimethyl-2-[(1-oxo-3-phenylpropyl)amino]ethyl]-4-hydroxy-2,6-dimethylbenzenepropanamide, hydrochloride] | < 10 | 5.5 | relative potency in the Writhing Assay [3]: the most potent compounds of the invention tested in the Writhing Assay; Number of Animals out of 10 Exhibiting Analgesia [3]: 10/10 |
| Cc1cc(O)cc(C)c1C[C@H](N)C(=O)NCC(C)(C)NC(=O)CCc1ccccc1 [Example 14, αS-Amino-4-hydroxy-2,6-dimethyl-N-[2-methyl-2-[(1-oxo-3-phenylpropyl)amino]propyl]benzenepropanamide, hydrochloride] | 26.3 | 66.3 | – |
| Cc1cc(O)cc(C)c1C[C@H](N)C(=O)N1CCN(Cc2ccccc2)CC1 [Example 15, 1-[2S-Amino-3-(4-hydroxy-2,6-dimethylphenyl)-1-oxopropyl]-4-(phenylmethyl)piperazine, dihydrochloride] | 4.5 | 14.9 | – |
| Cc1cc(O)cc(C)c1C[C@H](N)C(=O)NC(C)(C)CNC(=O)C#Cc1ccccc1 [Example 18, S-Amino-N-[1,1-dimethyl-2-[(1-oxo-3-phenyl-2-propynyl)amino]ethyl]-4-hydroxy-2,6-dimethylbenzenepropanamide, monohydrochloride] | < 10 | 9.3 | – |
| CC(=O)Nc1ccc(O)cc1 [acetaminophen] | – | – | undesirable side effects [4]: liver toxicity |
| CC(C)C[C@H](NC(=O)[C@H](Cc1ccccc1)NC(=O)CNC(=O)CNC(=O)[C@@H](N)Cc1ccc(O)cc1)C(=O)O [leucine enkephalin, H2 N-Tyr-Gly-Gly-Phe-Leu-OH] | – | – | binding to the same receptor sites as do the opiates [5]: bind to the same receptor sites as do the opiates; morphine-like actions [6]: exhibit some weak morphine-like actions |
| CSCC[C@H](NC(=O)[C@H](Cc1ccccc1)NC(=O)CNC(=O)CNC(=O)[C@@H](N)Cc1ccc(O)cc1)C(=O)O [methionine enkephalin, H2 N-Tyr-Gly-Gly-Phe-Met-OH] | – | – | binding to the same receptor sites as do the opiates [5]: bind to the same receptor sites as do the opiates; morphine-like actions [6]: exhibit some weak morphine-like actions |
